In PubChem BioAssay AID449764 (Southern Research Specialized Biocontainment Screening …, 2010):

Tested on: Mycobacterium tuberculosis H37Rv growth inhibition, no glycerol
Assay: Mycobacterium tuberculosis H37Rv growth inhibition, no glycerol, confirmatory dose response (AID 449764);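 also: growth read after 7 days of incubation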
Settings: for IC90: measured here: IC90 growth inhibition

Structure (SMILES) | IC50 [µM] | IC90 [µM]
CCCCCCC#Cc1ccc2c(c1)COc1c3ccccc3nn1-2 | 75.5 | > 100
CCc1ccc(-c2cc(C)no2)cc1S(=O)(=O)NCCCN1CCN(c2ccccc2)CC1 | 39 | 47.2
c1ccc2c(c1)CCN(c1nc(CN3CCOCC3)nc3sc4c(c13)CCCC4)C2 | 45.2 | 52.7
CCOC(=O)CNC(=O)CNC(=O)c1nn(-c2ccc(OC)c(Cl)c2)c(=O)c2ccccc12 | 38 | > 100
Cc1cc(C)c2cc(C(=O)Nc3ccc(C)c(F)c3)[nH]c2c1 | 1.32 | 1.91
O=c1oc2ccccc2c(Nc2ccccc2O)c1[N+](=O)[O-] | 9.46 | 13.9
Cc1ccc(C)c(-c2nnc(NC(=O)C3=COCCO3)o2)c1 | 13.9 | 30.2
COC(=O)CSc1nnc([C@H](CC(C)C)NC(=O)OC(C)(C)C)o1 | 21.9 | 29.9
NC(=O)c1cccn1-c1ncc(C(F)(F)F)cc1Cl | 14.4 | 28.1
COC(=O)CSc1nnc(-c2sc3cc(OC)ccc3c2Cl)n1C | 35.8 | > 50
Cc1ccc(C(=O)CC(SCC(=O)O)c2ccc([N+](=O)[O-])cc2)cc1 (centres undefined) | 10.8 | 12.1
Cc1ccc(OC/C(O)=C(\C#N)c2nc3ccccc3s2)cc1 | 25.7 | 41.1
S=C(NN=C1CCN(Cc2ccccc2)CC1)NC1CCCCC1 | 43.6 | 47
CCCCCCCNC(=O)C1(CC2CC(c3cccc(Br)c3)=NO2)CCNCC1 (centres undefined) | 52.1 | 80.4
CCN(CC)c1ccc(/C=C2\SC(=O)N(C(C)C)C2=O)o1 | 2.87 | 4.69
c1ccc(-c2ccccc2OCCCCn2ccnc2)cc1 | 23.3 | 26.9
Nc1ccc(Oc2ccc(F)cc2)nc1 | 70.1 | 85.7
Oc1cccc(-c2nc3ccc4ccccc4c3c3c2CCC3)c1 | 32.4 | 54.3
CN(C)CCOc1ccc(-c2c(-c3ccsc3)sc3ccccc23)cc1 | 15.4 | 21
O=C(Nc1ccn(Cc2ccccc2F)n1)c1ccc(COc2ccccc2Cl)cc1 | 11.2 | 16.1
Oc1ccc(-[n+]2c(-c3ccccc3)cc(-c3ccccc3)cc2-c2ccccc2)cc1 | 14.3 | 17.2
O=C(C[C@@H]1C/C=C\C[C@H](NC(=O)OCC2c3ccccc3-c3ccccc32)C(=O)OC[C@H]2CCCN2C1=O)N[C@@H](CO)Cc1ccccc1 | 27.3 | 37.2

Structure (SMILES) | IC50 [µM] | IC90 [µM]
Fc1ccc(C[n+]2c(-c3ccccc3)cc(-c3ccccc3)cc2-c2ccccc2)cc1 | 32.8 | 43.9
COc1ccc(-c2nnc(SCC(=O)N3CCc4ccccc4C3)o2)cc1 | 30.6 | 45.3
CCOC(=O)c1ccc(NC2=CC(=O)C(=O)c3ccccc32)cc1 | 37.7 | 48.3
CC[N+](C)(CC)CCCCOc1ccc2c(c1)C(=O)c1cc(OCCCC[N+](C)(CC)CC)ccc1-2 | 1.68 | 2.11
Cc1ccc(-n2nc3c(N4CCC(C(=O)NCc5ccccc5C)CC4)nnc(C)c3c2C)cc1 | 71.8 | > 100
Cc1cc(C(=O)N/N=C\C(Br)=C\c2ccccc2)c(C)o1 | 44.2 | 53.6
Cc1ccc(C2C3=C(CC(C)(C)CC3=O)N=C3c4ccccc4C(=O)C32)cc1 (centres undefined) | 63.6 | 87.5
Cc1ccc(C(=O)N/C(=C/c2ccco2)C(=O)OCN2C(=O)c3ccccc3C2=O)cc1 | 16.3 | 40.4
Cc1cccc(/C=C/C(=O)c2ccc([N+](=O)[O-])o2)c1 | < 0.2 | < 0.2
O=c1cc(-c2ccccc2Cl)oc2ccc([N+](=O)[O-])c(O)c12 | 21.4 | 28.2
CC(C)(C)C1CCc2sc(-c3nnc(CCl)o3)cc2C1 (centres undefined) | 5.74 | 19.5
Cc1[nH][nH]c(=O)c1C(c1ccc(-c2ccc(Cl)c(Cl)c2)o1)c1c(C)[nH][nH]c1=O | 82.1 | > 100
Cn1cc(/C=C2\C(=O)NC(=O)N(c3ccccc3)C2=O)c2ccccc21 | 42 | > 100
FC(F)(Cl)c1nnc2ccc(Cl)nn12 | 0.73 | 0.8
Cc1c(CCC(=O)NCCCn2ccnc2)c(=O)oc2c(C)c3occ(C(C)(C)C)c3cc12 | 28 | 37.6
CC(C)(C)C1CCc2nc(NC(=O)Cc3cn4ccsc4n3)sc2C1 (centres undefined) | 24.3 | 35.4
CC(=O)n1cc(N(C(=O)CCl)c2ccc(Cl)cc2)c2ccccc21 | 3.7 | 6.76
COC(=O)CCn1c(C)cc(C(=O)COc2ccccc2C(N)=O)c1C | 10.9 | 14.8
CNC(CC(=O)c1ccc([N+](=O)[O-])cc1)C(Cl)(Cl)Cl (centres undefined) | 5.37 | 7.81
COc1ccc(N/N=C(/N=Nc2nc(C)cc(=O)[nH]2)c2ccccc2)cc1 | 5.64 | 6.4
COC(=O)c1ccc(COC(=O)CCc2nc(-c3ccccc3)c(-c3ccccc3)o2)cc1 | 44.9 | > 100
CCOc1cc(-c2c(C#N)c(=O)[nH]c3c2c(C)nn3-c2ccc(F)cc2)ccc1O | 4.87 | 8.73

Structure (SMILES) | IC50 [µM] | IC90 [µM]
O=C(Nc1ccc(Cl)cc1)N(C1=NCCC1)c1ccc(OC(F)F)cc1 | 64.7 | > 100
COc1cc(NC(=O)c2cnc(N)s2)cc(C(=O)Nc2cccc(C(F)(F)F)c2)c1 | 85.9 | > 100
Cc1cc(OC(=O)c2cccs2)c2c3c(c(=O)oc2c1)CCCC3 | 4.18 | 8.9
COC(=O)c1ccc(-c2ncc(-c3cccc4ccccc34)o2)cc1 | 80.3 | > 100
O=C(c1ccc(CNc2c(N3CCCC3)c(=O)c2=O)cc1)N1CC=C(c2ccccc2)CC1 | 1.43 | 1.62
C=CCn1cccc(/C=C/C(=O)c2ccc(C(C)(C)C)cc2)c1=S | 68 | 86.8
CCCOc1ccc2oc(=O)c3c(c2c1)CCCN3C(=O)CN1CCN(c2ncccn2)CC1 | 73.1 | > 100
CCN1CCN(Cc2ccc(NC(=O)c3cc(NC(=O)c4cncc(-c5cccs5)c4)cc(OC)c3)cc2C(F)(F)F)CC1 | 10.3 | 16.5
Cc1ccc(CN2C3CCCC2CC(NC(=S)NCc2ccccc2)C3)cc1 (centres undefined) | 41.1 | 75.6
Cc1cnc(NC(=O)NCC2CCCC(CNC(=O)Nc3ncc(C)s3)C2)s1 (centres undefined) | 36.2 | > 50
Cc1nnc(-c2ccccc2)c(=O)n1/N=C/c1c(O)ccc2ccccc12 | 22.1 | 24.7
Cc1cccc2c1N(CCCOc1ccc(C(C)(C)C)cc1)C(=O)C2=O | 17.4 | 20.1
COc1ccc(NC(=O)NC(C)C2CC3CCC2C3)cc1 (centres undefined) | 25.3 | 43.1
CNc1ccc2oc(C[C@H]3O[C@@]4(CC[C@H]3C)O[C@H]([C@H](C)C(=O)c3ccc[nH]3)[C@H](C)C[C@H]4C)nc2c1C(=O)O | 2.82 | 3.18
COc1ccc(SC[C@H](Cc2ccccc2)N2CCN(CCc3ccccc3)CCC2=O)cc1 | 40.6 | 51.4
Nc1ccc(-c2nc3nc(N)nc(N)c3nc2-c2ccc(N)cc2)cc1 | 48.8 | > 100
Clc1ccc(NNc2ccnc3cc(Cl)ccc23)cc1 | 15.4 | 19.9
CC(C)(Oc1ccc(Cl)cc1)C(=O)OCC(=O)N1CCN(c2ccccc2)CC1 | 52 | 80.9
COC(=O)c1[nH]c2cc(OC)ccc2c1NC(=O)CN1CCN(c2cccc(C)c2)C(C)C1 (centres undefined) | 38.1 | 50.9
CC(=O)c1c(N2CCCC2)[nH]c(-c2ccccc2)nc1=S | 81.4 | > 100
CCc1cc(C(=O)Nc2nc(-c3ccccn3)cs2)sc1C | 4.53 | 8.86
Cn1nc(C(F)(F)F)c2cc(NC(=O)OCC(C)(C)C)sc21 | 22.8 | 43.1

Structure (SMILES) | IC50 [µM] | IC90 [µM]
Cc1ccc(CNc2ccc3c(c2)ncn3C(C)(C)C)cc1 | 19.9 | 28.8
Clc1ccc(SCc2cc(N3CCOCC3)nc(-c3ccccn3)n2)cc1 | 6.68 | 11.6
Oc1ccccc1Nc1nc(NCc2ccccc2)c2ccccc2n1 | 19.1 | 24.1
CCOC(=O)c1ccc(NC(=S)NCCc2ccc(F)cc2)cc1 | 75.3 | > 100
O=C(CCC(=O)NC1CCCCCCC1)Nc1nnc(C(F)(F)F)s1 | 12.1 | 13.8
Cc1nn(-c2ccccc2)c(N)c1C(c1ccc(C(C)C)cc1)c1c(C)nn(-c2ccccc2)c1N | 22.9 | 25.8
Cc1cc(NC(=O)CCl)no1 | 2.63 | 5.19
CCc1ccc2c(c1)/C(=C/C(=O)c1cccs1)C(=O)N2 | 2.55 | 4.12
CNC[C@@H](Cc1ccccc1)NC[C@@H](CC1CCCCC1)NCCCc1ccccc1 | 7.99 | 9.68
O=C(COc1ccccc1)NNc1nc2ccccc2s1 | 92.8 | > 100
c1cc2c3c(cccc3c1)NC1(CCC3(CC1)Nc1cccc4cccc(c14)N3)N2 | 78.1 | > 100
CN(C)c1ccc(CNC2C3CC4CC(C3)CC2C4)cc1 (centres undefined) | 12.2 | 17
Nc1ccccc1C#CC(=O)c1ccccc1 | 4.11 | 21.7
CCCCn1c(O)c(/C=C2/C=CC=N2)c(=O)[nH]c1=O | 12.1 | 23.6
COc1ccc(CCNc2nc(N3CCCCC3)nc(N3CCCCC3)n2)cc1OC | 18 | 23.3
O=C(c1cnn2c(C(F)F)cc(-c3ccccc3)nc12)N1CCc2ccccc2C1 | 35.4 | 48.6
O=C(Nc1nc2ccccc2[nH]1)C12CC3CC(CC(C3)C1)C2 | 13.5 | > 100
Cc1ccc2cc(C)c(N3CCN(c4ccccn4)CC3)nc2c1 | 43.1 | 46.7
Cc1cccc(/C=c2\s/c(=C\C(=O)C(C)(C)C)[nH]c2=O)c1 | 12.4 | 31.7
COc1ccc(OCC(=O)Nc2c(C(=O)N(CCN(C)C)Cc3ccco3)oc3ccccc23)cc1 | 41.8 | 45.9
Cc1ccc(CN2CCN(/N=C/c3ccc(Cl)c([N+](=O)[O-])c3)CC2)cc1 | 39.4 | 55.3
